Here are results for four molecules from BindingDB's records for PubMed 37683364 (Institute of Respiratory Health).

The target in this assay is RAC-alpha serine/threonine-protein kinase (Homo sapiens, UniProt P31749). Briefly: Inhibition of AKT phosphorylation in human OVCAR-8 cells assessed as reduction in pAKT level incubated for 24 hrs by Western blot analysis. In general terms: In western blotting, separated proteins are transferred to a membrane and probed.
RAC-alpha serine/threonine-protein kinase, sequence (P31749 whole entry): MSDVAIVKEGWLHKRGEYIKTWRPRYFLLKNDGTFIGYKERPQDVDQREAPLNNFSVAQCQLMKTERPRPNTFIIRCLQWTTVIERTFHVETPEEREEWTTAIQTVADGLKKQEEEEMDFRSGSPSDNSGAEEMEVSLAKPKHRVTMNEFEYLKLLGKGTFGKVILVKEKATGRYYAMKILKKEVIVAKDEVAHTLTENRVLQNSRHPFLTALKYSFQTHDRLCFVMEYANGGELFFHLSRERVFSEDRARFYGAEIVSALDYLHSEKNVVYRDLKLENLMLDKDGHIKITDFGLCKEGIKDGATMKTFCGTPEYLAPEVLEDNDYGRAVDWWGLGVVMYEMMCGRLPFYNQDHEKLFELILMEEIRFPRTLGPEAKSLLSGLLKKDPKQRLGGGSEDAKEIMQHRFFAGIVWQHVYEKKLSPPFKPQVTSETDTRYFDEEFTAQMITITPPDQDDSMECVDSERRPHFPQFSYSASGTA

Usually IC50 stands for the concentration that inhibits the measured activity by half. Take `O=C1NC(=O)C(Cc2ccc3nccc(-c4ccncc4)c3c2)S1` (centres undefined): the concentration for half-maximal inhibition (IC50) is 0.04 µM.

As for `c1cc(-c2ccnc3ccc(-c4cnc5[nH]ncc5c4)cc23)ccn1`, the IC50 is 0.076 µM.

As for `Nc1ncc(-c2ccc3nccc(-c4ccncc4)c3c2)cc1S(N)(=O)=O`, the IC50 amounted to 0.049 µM.

Take `O=S(=O)(Nc1cncc(-c2ccc3nccc(-c4ccncc4)c3c2)c1)c1ccccc1F`: the IC50 was found to be 0.007 µM.
